Tests used:
[1] = tested on: PCD28.1.S2.1 cells (human CD28, lacZ fused to the IL-2 promoter); assay: FDG assay for IL-2 promoter activity (lacZ reporter); assay type: cell-based, murine; conditions: added directly to PC28.1.s2.1 cells in solution (FIG. 20A)
Protocol: A second assay for agonist activity measured induction of IL-2 promoter activity, rather than production of IL-2 protein. The PCD28.1.S2.1 cells described above also contain lacZ fused to the IL-2 promoter. Thus, the PCD28.1.S2.1 cell line provides a convenient system for measuring IL-2 promoter activity upon CD28-mediated T cell simulation. T cells were activated as described above for the CTLL-2 assay, spun down, resuspended in 50 μl of media+50 μl of PBS, lysed with 10 μl of 20% Triton X-100, and supplemented with 25 μl of 10 mM FDG (Molecular Probes), a fluorogenic substrate for b-galactosidase. Hydrolysis of FDG first yields fluorescein monogalactoside (FMG) and then the highly fluorescent product fluorescein. Cell lysates were incubated with FDG for 60 min., and the levels of fluorescence were measured by Fluoroscan (MTX Lab Systems, Inc).
(§1) IL-2 promoter activity and IL-2 levels were measured similarly to that described in parts A and B above, except that proliferation of the reader CTLL-2 cells was measured by ^3H-thymidine incorporation.

CD28-Ig = CD28-Ig (Homo sapiens, UniProt P10747); assay: Surface plasmon resonance (BIAcore) on immobilized CD28-Ig; assay type: binding; design: native leader and extracellular domain peptide of CD28 and CD80 were grafted onto a human IgG1 heavy chain Fc region; human IgG1 Fc (hinge/CH2/CH3); made in house; host or cells: CHO cells; conditions: for dissociation from CD28-Ig coated surface: BIAcore, 10 ul/min
Protocol: Covalent attachment was achieved by firstly activating the surface with a 1:1 mixture of 0.1 M solution of N-hydroxysuccinamide and 0.1 M 1-ethyl-3-(3-dimethylaminopropyl)carbodiimide. A solution of CD28-Ig 50 ug/ml in 0.01 M sodium acetate pH 4.7 was then passed over the surface. Unreacted N-hydroxysuccinamide esters were then deactivated with 1 M ethanolamine pH 8.5. The surface was equilibrated with running buffer composed of 20 mM HEPES 150 mM NaCl, pH 7.2, 3 mM EDTA and 0.005% Tween 20.
For comparison of CD80-Igαtp and CD86-Igαtp binding with immobilized CD28-Ig, solutions of CD80-Igαtp and CD86-Igαtp (5 ug/ml) were prepared in running buffer described above. Sample solutions were injected (60 ul) at 10 ul/min. Between samples, the surface was regenerated with a 30 ul injection of Gentle elution buffer (Pierce Chemicals, Rockville, Ill.).

[2] = tested on: murine T-cell hybridoma cell lines expressing human CD28 (PCD28.1.s2.1, DCL27CD28wt.s2); assay: IL-2 production by CD28 T-cell hybridomas (CTLL-2 bioassay); assay type: cell-based; conditions: for IL-2 response: cross-linked with GAH antibody, no CD3 antibody; for level of IL-2 response at near saturation: soluble protein 1 ug/ml (FIG. 20C)
Text: The CD80- and CD86-Igαtp proteins were compared to the corresponding CD80 and CD86-Ig proteins to determine their ability to stimulate cells expressing human CD28 using two murine T-cell hybridoma cell lines expressing human CD28, PCD28.1.s2.1 and DCL27CD28wt.s2. The PCD28.1.s2.1 cell line was described in Example 1, part 3. The DCL27CD28wt.s2 cell line was created by transfection of the DC27 cell line [F. Pages et al., Nature, 369:327-329 (1994); F. Pages et al., J. Biol. Chem., 271(16):9403-9409 (1996)] with the same CD28 expression vector used for the PCD28.1.s2.1 cells [D. Couez et al., Molecular Immunology, 31:47-57 (1994)]. These cell lines were examined for their ability to produce IL-2 in response to activation with CD80- and CD86-Ig in comparison with the corresponding Igαtp fusion proteins. 96-well plates were coated with or without a CD3 antibody together with the CD80 and CD86 fusion proteins. This was accomplished by first incubating the plates with a previously determined suboptimal concentration of hamster […] CD3 antibody (MAb 145-2C11, Boerhinger-Mannheim Biochemicals) for two hours at room temperature (RT) or with just buffer alone, washing the plates with PBS, adding goat anti-human Ig heavy chain (GAH-IgHc, Sigma Chemical Co.) for an additional two hours at RT, washing again and coating with different concentrations of the CD80 or CD86 fusion protein for 16-18 hours at 4° C., washing again, and finally blocking for 30 min. with 0.2% BSA-PBS. T cells (1×10^5/well) were added in 150 μl medium into duplicate wells. For comparison, the soluble fusion proteins and the 248.23.2 CD28 MAb (IgM) [A. Morretta, University of Genova, Italy] were added to non-coated wells. T cells were incubated in the wells for 24 hours at 37° C., and supernatants were collected and evaluated for IL-2 levels in a standard CTLL-2 bioassay [S. M. Gillis et al., J. Immunol., 120:2027 (1978)]. Briefly, 1×10^4 IL-2 dependent CTLL-2 cells (ATCC)/well in 75 μl medium were added to an equal volume of test supernatant and incubated for 24 hours at 37° C. The cells were pulsed with 10 μl of 5 mg/ml MTT (Sigma Chemical Co.) for 4 hours, and lysed with […] 10% SDS/0.01N HCl solution for 14-16 hours. OD570 readings were converted into ng/ml of IL-2 based on a standard curve generated by treating cells with known concentrations of IL-2.
as §1

[3] = target: T1, human CD28 on PCD28.1.s2.1 cells (Homo sapiens, UniProt P10747); assay: Flow cytometry binding to cells expressing cell-surface CD28; assay type: cell-based; conditions: on ice
T1 construct: expressed in transfected cells; host or cells: PCD28.1.s2.1 (PE30.2 murine T-cell hybridoma transfected with pHbactCd28neo)
Protocol: Non-adherent CD28 expressing cells (PCD28.1.s2.1) were used for this assay format. PCD28.1.S2.1 cells were created by transfection of PE30.2 cells [D. Emilie et al., Eur. J. Immunol., 19:1619-1624 (1989)] with a vector for expression of human CD28 [D. Couez et al., Molecular Immunology, 31:47-57 (1994)]. All incubations were carried out on ice. Unlabelled CD80- and CD86-Igαtp or CD80 and CD86-Ig were incubated with the cells in binding buffer consisting of PBS w/o Ca+2/Mg+2, 0.2% bovine serum albumin and 0.1 % sodium azide. After washing twice in binding buffer, bound fusion proteins were detected with a 1:2000 dilution of a goat anti-human polyclonal antibody labeled with FITC (Flourescein isothiocyanate, Southern Biotech). Following two additional washes in binding buffer, the cells were resuspended in binding buffer and analyzed on a FACSort analyzer (Becton-Dickinson) using a 488 nm laser.

[4] = added directly to PC28.1.s2.1 cells in solution, CTLL-2 3H-thymidine incorporation (FIG. 20B)
[5] = soluble protein, absence of CD3 crosslinking

dissociation from CD28-Ig coated surface (CD28-Ig)	binding to CD28 positive cells [3]	off-rate compared with CD80-Igαtp (CD28-Ig; 5 ug/ml)	Substance	IL-2 promoter activity [1]	IL-2 production [2, 4]	IL-2 response [2]	IL-2 production [2, 5]	level of IL-2 response at near saturation [2]
dissociates very rapidly	no binding		CD80-Ig: CD80 leader and extracellular domain grafted onto human IgG1 heavy chain Fc region; monomeric Ig fusion (Ig homodimer) [reference compound]	no stimulation	no stimulation	did not give a response	no activity	
about three orders of magnitude slower	specific binding		CD80-Igαtp: CD80 leader and extracellular domain linked to human IgG1 hinge/CH2/CH3 and terminating in human IgA1 tailpiece (αtp)	dose dependent stimulation	dose dependent stimulation	increased the IL-2 response	induced IL-2 production	comparable to that observed for stimulation through cross-linking of CD3 with immobilized CD3 antibody
dissociates slowly	specific binding	higher than that for the CD80 construct	CD86-Igαtp: CD86 leader and extracellular domain linked to human IgG1 Fc and terminating in human IgA1 tailpiece (αtp)	dose dependent stimulation	dose dependent stimulation	increased the IL-2 response	induced IL-2 production	comparable to that observed for stimulation through cross-linking of CD3 with immobilized CD3 antibody

— patent US20020147326A1, “Hexameric fusion proteins and uses therefor” (SmithKline Beecham Corporation, priority 1996, published 2002)
